Target: T1, human DPP1 enzyme (Homo sapiens (Human), UniProt P53634)
Assay: not given
Details: values from K Doyle, J. Med. Chem. 2016, Table 3; cited from earlier work

T1 sequence (P53634 231-394): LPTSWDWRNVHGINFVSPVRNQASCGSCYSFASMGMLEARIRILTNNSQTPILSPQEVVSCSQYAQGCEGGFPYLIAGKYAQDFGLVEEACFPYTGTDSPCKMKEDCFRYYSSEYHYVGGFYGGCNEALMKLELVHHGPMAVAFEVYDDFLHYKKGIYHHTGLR
T1 sequence (P53634 25-134): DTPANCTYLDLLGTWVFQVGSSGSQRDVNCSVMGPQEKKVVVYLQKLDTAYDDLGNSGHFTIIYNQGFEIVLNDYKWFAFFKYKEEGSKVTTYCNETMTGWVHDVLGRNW
T1 sequence (P53634 395-463): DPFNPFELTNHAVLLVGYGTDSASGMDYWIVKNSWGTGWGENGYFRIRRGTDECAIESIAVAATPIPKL

| Compound | pIC50 in the human recombinant DPP1 isolated enzyme assay (state of the art) |
| --- | --- |
| Cn1c(=O)oc2ccc(-c3ccc(C[C@@H](C#N)NC(=O)C4(C(F)F)CNC4)cc3)cc21 [compound 14, (S)-N-(1-cyano-2-(4-(3-methyl-2-oxo-2,3-dihydrobenzo[d]oxazol-5-yl)phenyl)ethyl)-3-(difluoromethyl)azetidine-3-carboxamide] | less than 5 |
| N#C[C@H](Cc1ccc(-c2ccc3c(c2)C2(CCN(C4COC4)CC2)OC3)cc1F)NC(=O)C1(C(F)F)CNC1 [compound 15, (S)-N-(1-cyano-2-(2-fluoro-4-(1′-(oxetan-3-yl)-3H-spiro[isobenzofuran-1,4′-piperidin]-6-yl)phenyl)ethyl)-3-(difluoromethyl)azetidine-3-carboxamide] | less than 5 |
| CN1C(=O)Cc2ccc(-c3ccc(C[C@@H](C#N)NC(=O)C4(C(F)F)CNC4)c(F)c3)cc21 [compound 16, (S)-N-(1-cyano-2-(2-fluoro-4-(1-methyl-2-oxoindolin-6-yl)phenyl)ethyl)-3-(difluoromethyl)azetidine-3-carboxamide] | 5.9 |

Target: T1, human DPP1 enzyme
Assay: Activity on human recombinant DPP1 isolated enzyme assay (H-Gly-Arg-AMC cleavage, fluorescence)
Assay type: biochemical
Details: 0.35 nM human DPP1, 300 μM H-Gly-Arg-AMC, 30 min pre-incubation at 25° C., pH 5.0
Procedure: Human DPP1 enzyme activity was determined by measuring release of the fluorophore aminomethyl coumarin (AMC) following enzymatic cleavage of the dipeptide substrate H-Gly-Arg-AMC. Assays were performed in black 384 well plates in 25 mM piperazine buffer, pH 5.0, containing 50 mM NaCl, 0.01% (v/v) Triton X100, 5 mM DTT with 0.35 nM human DPP1 enzyme, 300 μM H-Gly-Arg-AMC substrate (˜Km concentration) and test compounds at 0.51-10000 nM concentration range. Human DPP1 was pre-incubated with test compounds for 30 minutes at 25° C. prior to substrate incubation for a further 40 minutes at 25° C. Enzyme activity was determined by measuring fluorescence of the AMC product at excitation and emission wavelengths of 380 nm and 460 nm using a BMG LABTECH PHERA star plate reader. Test compound potencies are reported in Table 15 as pIC50 values generated from 4-parameter sigmoidal curve fitting of the measured concentration-inhibition responses.

| h DPP1 pIC50 | Compound |
| --- | --- |
| ++++ (h DPP1 pIC50 higher than 8) | COC1(C(=O)N[C@H](C#N)Cc2ccc(-c3ccc4oc(=O)n(C)c4c3)cc2F)CNC1 [Example 36, (S)-N-(1-cyano-2-(2-fluoro-4-(3-methyl-2-oxo-2,3-dihydrobenzo[d]oxazol-5-yl)phenyl)ethyl)-3-methoxyazetidine-3-carboxamide] |
| ++++ (h DPP1 pIC50 higher than 8) | COC1(C(=O)N[C@H](C#N)Cc2ccc(-c3ccc4oc(=O)n(C)c4c3)cc2F)CN(C)C1 [Example 37, (S)-N-(1-cyano-2-(2-fluoro-4-(3-methyl-2-oxo-2,3-dihydrobenzo[d]oxazol-5-yl)phenyl)ethyl)-3-methoxy-1-methylazetidine-3-carboxamide] |
| ++++ (h DPP1 pIC50 higher than 8) | COC1(C(=O)N[C@H](C#N)Cc2ccc(-c3ccc(C#N)cc3)cc2F)CN(C)C1 [Example 41, (S)-N-(1-cyano-2-(4′-cyano-3-fluoro-[1,1′-biphenyl]-4-yl)ethyl)-3-methoxy-1-methylazetidine-3-carboxamide] |
| ++++ (h DPP1 pIC50 higher than 8) | CN1C(=O)Cc2ccc(-c3ccc(C[C@@H](C#N)NC(=O)C4(CF)CNC4)c(F)c3)cc21 [Example 48, (S)-N-(1-cyano-2-(2-fluoro-4-(1-methyl-2-oxoindolin-6-yl)phenyl)ethyl)-3-(fluoromethyl)azetidine-3-carboxamide] |
| ++++ (h DPP1 pIC50 higher than 8) | COC1(C(=O)N[C@H](C#N)Cc2ccc(-c3ccc4c(c3)N(C)C(=O)C4)cc2F)CNC1 [Example 49, (S)-N-(1-cyano-2-(2-fluoro-4-(1-methyl-2-oxoindolin-6-yl)phenyl)ethyl)-3-methoxyazetidine-3-carboxamide] |
| ++++ (h DPP1 pIC50 higher than 8) | COC1(C(=O)N[C@H](C#N)Cc2ccc(-c3ccc4c(c3)N(C)C(=O)C4)cc2F)CN(C)C1 [Example 50, (S)-N-(1-cyano-2-(2-fluoro-4-(1-methyl-2-oxoindolin-6-yl)phenyl)ethyl)-3-methoxy-1-methylazetidine-3-carboxamide] |

| Compound | h DPP1 pIC50 |
| --- | --- |
| COC1(C(=O)N[C@H](C#N)Cc2ccc(-c3ccc4c(c3)C3(CCN(C5COC5)CC3)OC4)cc2F)CN(C)C1 [Example 47, (S)-N-(1-cyano-2-(2-fluoro-4-(1′-(oxetan-3-yl)-3H-spiro[isobenzofuran-1,4′-piperidin]-6-yl)phenyl)ethyl)-3-methoxy-1-methylazetidine-3-carboxamide] | ++++ (h DPP1 pIC50 higher than 8) |

Same assay, conditions: 0.35 nM human DPP1, 300 μM H-Gly-Arg-AMC, 30 min pre-incubation at 25° C., pH 5.0; read-out: h DPP1 pIC50 (converted)

| IC50 | Compound |
| --- | --- |
| 1 to 10 µM | CC(C)OC1(C(=O)N[C@H](C#N)Cc2ccc(-c3ccc(C#N)cc3)cc2)CNC1 [Example 26, (S)-N-(1-cyano-2-(4′-cyano-[1,1′-biphenyl]-4-yl)ethyl)-3-isopropoxyazetidine-3-carboxamide] |
| 0.1 to 1 µM | COC1(C(=O)N[C@H](C#N)Cc2ccc(-c3ccc(C#N)cc3)cc2)CN(C2COC2)C1 [Example 29, (S)-N-(1-cyano-2-(4′-cyano-[1,1′-biphenyl]-4-yl)ethyl)-3-methoxy-1-(oxetan-3-yl)azetidine-3-carboxamide] |
| 1 to 10 µM | COC1(C(=O)N[C@H](C#N)Cc2ccc(-c3ccc(C#N)cc3)cc2)CN(C(C)C)C1 [Example 30, (S)-N-(1-cyano-2-(4′-cyano-[1,1′-biphenyl]-4-yl)ethyl)-1-isopropyl-3-methoxyazetidine-3-carboxamide] |
| 0.1 to 1 µM | COC1(C(=O)N[C@H](C#N)Cc2ccc(-c3ccc(C#N)cc3)cc2)CNC1C (stereo partly drawn) [Example 31, N-((S)-1-cyano-2-(4′-cyano-[1,1′-biphenyl]-4-yl)ethyl)-3-methoxy-2-methylazetidine-3-carboxamide] |
| 0.1 to 1 µM | CN1CC(C(=O)N[C@H](C#N)Cc2ccc(-c3ccc(C#N)cc3)cc2)(C(F)F)C1 [Example 35, (S)-N-(1-cyano-2-(4′-cyano-[1,1′-biphenyl]-4-yl)ethyl)-3-(difluoromethyl)-1-methylazetidine-3-carboxamide] |
| 0.01 to 0.1 µM | CN1CC(O)(C(=O)N[C@H](C#N)Cc2ccc(-c3ccc(C#N)cc3)cc2)C1 [Example 38, (S)-N-(1-cyano-2-(4′-cyano-[1,1′-biphenyl]-4-yl)ethyl)-3-hydroxy-1-methylazetidine-3-carboxamide] |
| 0.01 to 0.1 µM | CN1CC(C(=O)N[C@H](C#N)Cc2ccc(-c3ccc(C#N)cc3)cc2F)(C(F)F)C1 [Example 40, (S)-N-(1-cyano-2-(4′-cyano-3-fluoro-[1,1′-biphenyl]-4-yl)ethyl)-3-(difluoromethyl)-1-methylazetidine-3-carboxamide] |
| 0.1 to 1 µM | COC1(C(=O)NC(C#N)Cc2ncc(-c3ccc(C#N)cc3)cc2F)CNC1 (stereo not shown) [Example 42, N-(1-cyano-2-(5-(4-cyanophenyl)-3-fluoropyridin-2-yl)ethyl)-3-methoxyazetidine-3-carboxamide] |
| 1 to 10 µM | CCCN1CC(OC)(C(=O)N[C@H](C#N)Cc2ccc(-c3ccc(C#N)cc3)cc2)C1 [Example 46, (S)-N-(1-cyano-2-(4′-cyano-[1,1′-biphenyl]-4-yl)ethyl)-3-methoxy-1-propylazetidine-3-carboxamide] |
| 1 to 10 µM | COC1(C(=O)N[C@H](C#N)Cc2ccc(-c3ccc(C#N)cc3)cc2)CN(CC(C)C)C1 [Example 51, (S)-N-(1-cyano-2-(4′-cyano-[1,1′-biphenyl]-4-yl)ethyl)-1-isobutyl-3-methoxyazetidine-3-carboxamide] |
| 0.1 to 1 µM | CCN1CC(OC)(C(=O)N[C@H](C#N)Cc2ccc(-c3ccc(C#N)cc3)cc2)C1 [Example 52, (S)-N-(1-cyano-2-(4′-cyano-[1,1′-biphenyl]-4-yl)ethyl)-1-ethyl-3-methoxyazetidine-3-carboxamide] |

| Compound | IC50 |
| --- | --- |
| CN1CC(C(=O)N[C@H](C#N)Cc2ccc(-c3ccc4c(c3)C3(CCN(C5COC5)CC3)OC4)cc2F)(C(F)F)C1 [Example 39, (S)-N-(1-cyano-2-(2-fluoro-4-(1′-(oxetan-3-yl)-3H-spiro[isobenzofuran-1,4′-piperidin]-6-yl)phenyl)ethyl)-3-(difluoromethyl)-1-methylazetidine-3-carboxamide] | 0.01 to 0.1 µM |
